A word on the EC50: it is the concentration giving half of the maximal effect. Usually solubility stands for the concentration that dissolves in the medium under given conditions.

The structures appear in SMILES notation. ≈ marks a conversion by molar mass, not a printed value. Calls of active or inactive are those of the source. The rule behind the calls is not given here.

Data set [1] has as its target T1, Cannabinoid receptor 1 (Homo sapiens, UniProt P21554). As to the kind of experiment: Agonist activity at human recombinant cannabinoid CB1 receptor expressed in MMY23 Saccharomyces cerevisiae assessed as degradation of FDGlu to fluorescein after 24 hrs by spectrofluorimetry. Format: functional.
Data set [2] has as its target T2, Cannabinoid receptor 2 (Homo sapiens, UniProt P34972). As to the kind of experiment: Agonist activity at human recombinant cannabinoid CB2 receptor expressed in MMY23 Saccharomyces cerevisiae assessed as degradation of FDGlu to fluorescein after 24 hrs by spectrofluorimetry. Format: functional.
For data set [3], the target named is T2, Cannabinoid receptor 2. Kind of data set: Agonist activity at human recombinant cannabinoid CB2 receptor expressed in MMY23 Saccharomyces cerevisiae assessed as degradation of FDGlu to fluorescein after 24 hrs by spectrofluorimetry relative to HU210. The format is functional.
The target of data set [4] is T1, Cannabinoid receptor 1. As to the kind of experiment: Agonist activity at human recombinant cannabinoid CB1 receptor expressed in MMY23 Saccharomyces cerevisiae assessed as degradation of FDGlu to fluorescein after 24 hrs by spectrofluorimetry relative to HU210. The format is functional.
In data set [5] the target is T1, Cannabinoid receptor 1. Kind of data set: Agonist activity at human recombinant cannabinoid CB1 receptor expressed in MMY23 Saccharomyces cerevisiae assessed as degradation of FDGlu to fluorescein at 30 uM after 24 hrs by spectrofluorimetry. Format: functional.
A further data set is filed under the species Homo sapiens. Kind of data set: Selectivity ratio of EC50 for human recombinant cannabinoid CB1 receptor to EC50 for human recombinant cannabinoid CB2 receptor.
Data set [6] relates to Rattus norvegicus. As to the kind of experiment: Analgesic activity in rat joint model of chronic pain at 5 mg/kg, po BID for 5 days. The format is functional, organism-based. The arrangement: dose 5 mg/kg.
Data set [7] in a line: Efflux ratio of apparent permeability […] side of MDR1-expressing MDCK2 cells after 60 mins by liquid scintillation counting. Format: ADME, cell-based, Canis lupus familiaris. As to conditions: dog, mdck-ii, 1 h.
For data set [8], the target named is D(1A) dopamine receptor (Homo sapiens) (UniProt P21728). Kind of data set: Binding affinity to human dopamine D1 receptor at 1 uM.
Data set [9] deals with D(2) dopamine receptor (Homo sapiens) (UniProt P14416). Kind of data set: Binding affinity to human dopamine D2S receptor at 1 uM.
Data set [10] deals with Endothelin-1 receptor (Homo sapiens) (UniProt P25101). As to the kind of experiment: Binding affinity to human ETA receptor at 1 uM.
Data set [11] in a line: Binding affinity to GABA receptor at 1 uM.
Data set [12] has as its target Galanin receptor type 2 (Homo sapiens) (UniProt O43603). As to the kind of experiment: Binding affinity to human GAL2 receptor at 1 uM.
Data set [13] deals with C-X-C chemokine receptor type 2 (Homo sapiens) (UniProt P25025). Kind of data set: Binding affinity to human CXCR2 receptor at 1 uM.
In data set [14] the target is Histamine H1 receptor (Homo sapiens) (UniProt P35367). As to the kind of experiment: Binding affinity to human histamine H1 receptor at 1 uM.
The target in data set [15] is Histamine H2 receptor (Homo sapiens) (UniProt P25021). As to the kind of experiment: Binding affinity to human histamine H2 receptor at 1 uM.
For data set [16], the target named is Melanocortin receptor 4 (Homo sapiens) (UniProt P32245). Kind of data set: Binding affinity to human MC4 receptor at 1 uM.
The target of data set [17] is Melatonin receptor type 1A (Homo sapiens) (UniProt P48039). As to the kind of experiment: Binding affinity to human ML1 receptor at 1 uM.
Data set [18] concerns the target Muscarinic acetylcholine receptor M1 (Homo sapiens) (UniProt P11229). Kind of data set: Binding affinity to human muscarinic M1 receptor at 1 uM.
The target of data set [19] is Muscarinic acetylcholine receptor M2 (Homo sapiens) (UniProt P08172). As to the kind of experiment: Binding affinity to human muscarinic M2 receptor at 1 uM.
The target in data set [20] is Muscarinic acetylcholine receptor M3 (Homo sapiens) (UniProt P20309). Kind of data set: Binding affinity to human muscarinic M3 receptor at 1 uM.
Data set [21] concerns the target Muscarinic acetylcholine receptor M4 (Homo sapiens) (UniProt P08173). Kind of data set: Binding affinity to human muscarinic M4 receptor at 1 uM.
The target of data set [22] is Substance-K receptor (Homo sapiens) (UniProt P21452). As to the kind of experiment: Binding affinity to human NK2 receptor at 1 uM.
The target in data set [23] is Cannabinoid receptor 1 (Rattus norvegicus, UniProt P20272). Kind of data set: Agonist activity at cannabinoid CB1 receptor at rat cerebellum by GTPgammaS binding assay. The format is functional, tissue-based.
The target in data set [24] is Cannabinoid receptor 1 (Rattus norvegicus) (UniProt P20272). As to the kind of experiment: Agonist activity at cannabinoid CB1 receptor at rat cerebellum by GTPgammaS binding assay relative to HU210. Format: functional.
Data set [25] is described as follows: Drug level in rat blood at 130 mg/kg, po after 1 hr. Format: ADME, organism-based. The arrangement: dose 130 mg/kg, route oral. As to conditions: read-out: Drug uptake.
Data set [26] is described as follows: Drug level in rat blood at 130 mg/kg, po after 3 hrs. Format: ADME, organism-based. More on the design: dose 130 mg/kg, route oral. The note with it: read-out: Drug uptake.
Data set [27] deals with Alpha-2A adrenergic receptor (Homo sapiens) (UniProt P08913). Kind of data set: Binding affinity to adrenergic alpha2 receptor at 1 uM.
Data set [28] concerns the target Adenosine receptor A1 (Homo sapiens) (UniProt P30542). As to the kind of experiment: Binding affinity to human adenosine A1 receptor at 1 uM.
The target in data set [29] is Adenosine receptor A2a (Homo sapiens) (UniProt P29274). As to the kind of experiment: Binding affinity to human adenosine A2A receptor at 1 uM.
The target of data set [30] is Adenosine receptor A3 (Homo sapiens) (UniProt P0DMS8). As to the kind of experiment: Binding affinity to human adenosine A3 receptor at 1 uM.
Data set [31] in a line: Binding affinity to adrenergic alpha1 receptor at 1 uM.
In data set [32] the target is Beta-1 adrenergic receptor (Homo sapiens) (UniProt P08588). Kind of data set: Binding affinity to human beta-1 adrenergic receptor at 1 uM.
Data set [33] concerns the target Type-1 angiotensin II receptor (Homo sapiens) (UniProt P30556). As to the kind of experiment: Binding affinity to human AT1 receptor at 1 uM.
Data set [34] can be described thus: Binding affinity to central benzodiazepine receptor at 1 uM.
In data set [35] the target is B2 bradykinin receptor (Homo sapiens) (UniProt P30411). As to the kind of experiment: Binding affinity to human bradykinin B2 receptor at 1 uM.
The target of data set [36] is Cholecystokinin receptor type A (Homo sapiens) (UniProt P32238). Kind of data set: Binding affinity to human CCKA receptor at 1 uM.
Data set [37] deals with Rattus norvegicus. Kind of data set: Induction of hypothermia in rat at 130 mg/kg, po after 5 hrs. More on the design: dose 130 mg/kg, route oral. The note with it: in vivo. The format is organism-based.
In data set [38] the test system is Rattus norvegicus. Kind of data set: Induction of hypothermia in rat at 130 mg/kg, po after 1 to 3 hrs. As to conditions: in vivo. More on the design: dose 130 mg/kg, route oral. Format: organism-based.
Data set [39] can be described thus: Solubility in simulated intestinal fluid at pH 5. The format is physicochemical.

T1 sequence (P21554 whole entry): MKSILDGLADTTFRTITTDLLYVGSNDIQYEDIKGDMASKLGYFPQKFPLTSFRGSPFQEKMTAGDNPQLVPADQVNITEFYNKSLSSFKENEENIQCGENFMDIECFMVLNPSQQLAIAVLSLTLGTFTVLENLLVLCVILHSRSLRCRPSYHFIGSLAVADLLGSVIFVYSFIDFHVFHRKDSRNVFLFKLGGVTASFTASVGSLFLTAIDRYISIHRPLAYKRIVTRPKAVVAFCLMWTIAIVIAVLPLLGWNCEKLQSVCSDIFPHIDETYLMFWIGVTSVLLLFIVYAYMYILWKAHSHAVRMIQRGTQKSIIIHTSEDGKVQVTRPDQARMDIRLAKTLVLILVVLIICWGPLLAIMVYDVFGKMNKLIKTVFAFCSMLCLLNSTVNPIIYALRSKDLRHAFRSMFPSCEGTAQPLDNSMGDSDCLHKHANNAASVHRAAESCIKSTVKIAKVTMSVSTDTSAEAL
T2 sequence (P34972 whole entry): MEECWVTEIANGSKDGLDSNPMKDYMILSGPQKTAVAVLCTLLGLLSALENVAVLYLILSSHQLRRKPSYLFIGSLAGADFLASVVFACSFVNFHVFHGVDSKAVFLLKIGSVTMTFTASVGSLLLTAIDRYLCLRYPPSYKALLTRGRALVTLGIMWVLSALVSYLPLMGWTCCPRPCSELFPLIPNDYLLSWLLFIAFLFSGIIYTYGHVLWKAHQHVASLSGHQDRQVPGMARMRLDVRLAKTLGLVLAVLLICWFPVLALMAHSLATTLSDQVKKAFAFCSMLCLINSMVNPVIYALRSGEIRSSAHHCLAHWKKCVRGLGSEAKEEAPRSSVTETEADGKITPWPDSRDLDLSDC
Chain of Muscarinic acetylcholine receptor M3 (Homo sapiens) (P20309 whole entry, looked up): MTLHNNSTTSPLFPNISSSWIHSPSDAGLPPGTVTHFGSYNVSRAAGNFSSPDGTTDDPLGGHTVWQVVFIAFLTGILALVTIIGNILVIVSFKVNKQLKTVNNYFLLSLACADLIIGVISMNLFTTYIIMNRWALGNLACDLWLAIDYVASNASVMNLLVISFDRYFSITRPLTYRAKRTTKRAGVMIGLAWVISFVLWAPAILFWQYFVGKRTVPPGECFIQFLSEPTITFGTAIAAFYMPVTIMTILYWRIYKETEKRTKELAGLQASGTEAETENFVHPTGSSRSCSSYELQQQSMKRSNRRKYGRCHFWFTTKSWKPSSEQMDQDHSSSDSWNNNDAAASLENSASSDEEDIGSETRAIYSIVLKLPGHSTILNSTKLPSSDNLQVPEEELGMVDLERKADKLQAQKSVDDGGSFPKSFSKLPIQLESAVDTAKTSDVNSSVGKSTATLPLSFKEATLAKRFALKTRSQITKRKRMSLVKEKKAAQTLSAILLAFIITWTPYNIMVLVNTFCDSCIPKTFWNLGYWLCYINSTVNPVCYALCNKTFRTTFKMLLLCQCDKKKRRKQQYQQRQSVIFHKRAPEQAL
Chain of D(1A) dopamine receptor (Homo sapiens) (P21728 whole entry): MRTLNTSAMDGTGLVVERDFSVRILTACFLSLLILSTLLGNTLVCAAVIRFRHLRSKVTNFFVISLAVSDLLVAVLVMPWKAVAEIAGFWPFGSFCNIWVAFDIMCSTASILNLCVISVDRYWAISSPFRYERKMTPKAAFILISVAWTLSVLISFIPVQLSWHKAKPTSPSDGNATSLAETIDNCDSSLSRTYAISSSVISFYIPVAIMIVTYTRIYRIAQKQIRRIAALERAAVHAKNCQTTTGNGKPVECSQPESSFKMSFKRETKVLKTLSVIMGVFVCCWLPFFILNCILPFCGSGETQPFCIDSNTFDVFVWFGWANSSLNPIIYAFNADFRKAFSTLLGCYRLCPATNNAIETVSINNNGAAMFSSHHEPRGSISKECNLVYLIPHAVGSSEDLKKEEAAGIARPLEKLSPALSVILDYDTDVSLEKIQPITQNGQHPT
Chain of Muscarinic acetylcholine receptor M4 (Homo sapiens) (P08173 whole entry): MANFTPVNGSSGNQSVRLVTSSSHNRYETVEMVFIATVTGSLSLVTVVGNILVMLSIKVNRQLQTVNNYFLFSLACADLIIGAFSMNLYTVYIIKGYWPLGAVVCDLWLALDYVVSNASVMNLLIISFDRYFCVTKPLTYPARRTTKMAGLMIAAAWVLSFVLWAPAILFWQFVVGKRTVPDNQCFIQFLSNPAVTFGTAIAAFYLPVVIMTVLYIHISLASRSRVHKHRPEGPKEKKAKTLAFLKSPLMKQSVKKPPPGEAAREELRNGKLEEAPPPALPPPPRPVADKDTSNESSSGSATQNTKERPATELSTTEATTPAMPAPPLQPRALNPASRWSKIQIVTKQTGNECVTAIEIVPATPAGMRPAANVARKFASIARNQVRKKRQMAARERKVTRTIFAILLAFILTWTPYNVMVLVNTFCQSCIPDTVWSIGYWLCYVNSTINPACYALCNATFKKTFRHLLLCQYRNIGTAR
Chain of C-X-C chemokine receptor type 2 (Homo sapiens) (P25025 whole entry): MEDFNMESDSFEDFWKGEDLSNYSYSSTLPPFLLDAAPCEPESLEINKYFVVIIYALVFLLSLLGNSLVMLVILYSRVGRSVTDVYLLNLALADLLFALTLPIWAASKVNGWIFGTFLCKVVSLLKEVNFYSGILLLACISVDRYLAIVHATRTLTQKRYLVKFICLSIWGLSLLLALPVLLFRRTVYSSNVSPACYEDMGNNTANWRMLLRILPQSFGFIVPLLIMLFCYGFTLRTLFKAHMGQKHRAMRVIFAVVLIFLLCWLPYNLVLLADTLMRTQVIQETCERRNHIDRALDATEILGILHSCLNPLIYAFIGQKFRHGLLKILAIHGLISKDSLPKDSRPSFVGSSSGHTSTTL
Chain of D(2) dopamine receptor (Homo sapiens) (P14416 whole entry): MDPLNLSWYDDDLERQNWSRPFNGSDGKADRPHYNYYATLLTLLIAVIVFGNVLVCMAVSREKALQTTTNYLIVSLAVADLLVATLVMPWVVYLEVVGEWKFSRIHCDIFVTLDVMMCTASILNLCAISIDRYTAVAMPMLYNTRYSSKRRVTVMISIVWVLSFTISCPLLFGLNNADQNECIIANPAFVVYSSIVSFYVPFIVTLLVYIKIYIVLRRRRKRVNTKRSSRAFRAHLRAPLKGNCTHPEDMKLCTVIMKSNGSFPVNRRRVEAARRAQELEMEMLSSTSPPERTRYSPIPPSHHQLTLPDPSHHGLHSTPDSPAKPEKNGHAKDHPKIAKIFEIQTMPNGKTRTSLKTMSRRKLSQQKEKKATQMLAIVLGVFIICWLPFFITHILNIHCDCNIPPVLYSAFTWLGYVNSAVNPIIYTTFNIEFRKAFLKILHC
Chain of Galanin receptor type 2 (Homo sapiens) (O43603 whole entry): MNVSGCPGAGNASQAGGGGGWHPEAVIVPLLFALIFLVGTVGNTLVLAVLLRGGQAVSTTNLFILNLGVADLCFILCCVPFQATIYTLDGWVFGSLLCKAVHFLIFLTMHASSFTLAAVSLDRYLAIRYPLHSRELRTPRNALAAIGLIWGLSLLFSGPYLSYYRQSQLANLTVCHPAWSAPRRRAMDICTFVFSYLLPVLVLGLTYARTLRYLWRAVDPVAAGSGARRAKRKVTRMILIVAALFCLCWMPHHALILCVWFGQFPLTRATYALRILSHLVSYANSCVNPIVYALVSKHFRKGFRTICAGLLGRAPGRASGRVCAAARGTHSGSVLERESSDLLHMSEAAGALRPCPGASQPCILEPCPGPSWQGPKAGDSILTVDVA
Chain of Substance-K receptor (Homo sapiens) (P21452 whole entry): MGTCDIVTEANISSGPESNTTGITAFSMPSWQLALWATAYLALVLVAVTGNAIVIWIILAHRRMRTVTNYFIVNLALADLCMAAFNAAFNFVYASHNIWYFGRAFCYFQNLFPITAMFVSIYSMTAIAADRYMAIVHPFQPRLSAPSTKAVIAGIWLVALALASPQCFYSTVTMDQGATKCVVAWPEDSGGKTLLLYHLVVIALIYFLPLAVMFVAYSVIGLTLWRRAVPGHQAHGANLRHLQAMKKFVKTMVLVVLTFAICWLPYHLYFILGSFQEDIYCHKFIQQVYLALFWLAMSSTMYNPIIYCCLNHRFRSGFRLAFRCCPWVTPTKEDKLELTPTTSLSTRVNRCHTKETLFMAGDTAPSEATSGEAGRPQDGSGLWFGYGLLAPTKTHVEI
Chain of Melanocortin receptor 4 (Homo sapiens) (P32245 whole entry): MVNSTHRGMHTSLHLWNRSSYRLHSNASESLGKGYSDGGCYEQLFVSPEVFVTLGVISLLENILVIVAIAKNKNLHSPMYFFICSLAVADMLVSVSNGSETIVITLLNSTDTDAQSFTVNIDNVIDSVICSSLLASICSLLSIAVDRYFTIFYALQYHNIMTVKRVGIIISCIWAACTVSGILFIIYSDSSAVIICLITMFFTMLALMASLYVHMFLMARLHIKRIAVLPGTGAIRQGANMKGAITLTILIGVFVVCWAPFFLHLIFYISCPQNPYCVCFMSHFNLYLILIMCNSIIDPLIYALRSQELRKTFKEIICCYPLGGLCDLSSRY
Chain of Melatonin receptor type 1A (Homo sapiens) (P48039 whole entry): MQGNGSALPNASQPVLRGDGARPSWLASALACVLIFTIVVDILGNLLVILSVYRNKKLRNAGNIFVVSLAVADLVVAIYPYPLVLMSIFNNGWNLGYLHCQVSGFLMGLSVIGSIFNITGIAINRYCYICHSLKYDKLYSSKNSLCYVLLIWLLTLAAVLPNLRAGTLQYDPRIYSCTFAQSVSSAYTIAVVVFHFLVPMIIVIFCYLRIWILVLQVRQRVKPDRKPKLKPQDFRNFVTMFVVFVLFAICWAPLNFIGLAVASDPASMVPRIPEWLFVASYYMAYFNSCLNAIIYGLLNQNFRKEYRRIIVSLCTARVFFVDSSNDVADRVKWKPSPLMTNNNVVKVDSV
Chain of Adenosine receptor A3 (Homo sapiens) (P0DMS8 whole entry): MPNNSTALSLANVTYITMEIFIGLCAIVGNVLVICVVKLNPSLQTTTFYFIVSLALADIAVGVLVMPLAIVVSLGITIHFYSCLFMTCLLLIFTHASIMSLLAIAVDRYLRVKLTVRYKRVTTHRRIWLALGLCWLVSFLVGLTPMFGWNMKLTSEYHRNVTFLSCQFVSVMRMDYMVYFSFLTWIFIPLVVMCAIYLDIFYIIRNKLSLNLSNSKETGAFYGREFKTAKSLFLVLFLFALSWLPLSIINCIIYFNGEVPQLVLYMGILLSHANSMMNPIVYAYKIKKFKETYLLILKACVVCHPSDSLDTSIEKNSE

In the case of `CCCCCCC(C)(C)c1cc(O)c2c(c1)OC(C)(C)[C@@H]1CC=C(CO)C[C@@H]21`, the EC50 on Cannabinoid receptor 1 [1] was 0.04 µM.
In the case of `Cc1c[nH]c2c(NC3CCOCC3)ncc(C(=O)N3CCOCC3)c12`, the EC50 at Cannabinoid receptor 1 [1] was over 30 µM; at Cannabinoid receptor 2 [2] it was 3300 nM. In addition, the Efficacy at Cannabinoid receptor 2 [3] amounted to 84%.
For the compound `Cc1c[nH]c2c(Nc3cccc(Cl)c3)ncc(C(=O)N3CCCCC3)c12`, the figures for the EC50 at Cannabinoid receptor 1 [1] and at Cannabinoid receptor 2 [2] were 4 µM and 14 nM, respectively. The Efficacy stood at 32% at Cannabinoid receptor 1 [4] and 73% on Cannabinoid receptor 2 [3].
As for `COc1cccc(Nc2ncc(C(=O)N3CCOCC3)c3c(C)c[nH]c23)c1`, the EC50 at Cannabinoid receptor 1 [1] amounted to 25.1 µM; on Cannabinoid receptor 2 [2] it was 48 nM. The Efficacy at Cannabinoid receptor 1 [4] stood at 69%; on Cannabinoid receptor 2 [3], 83%. For the same compound, the result at Cannabinoid receptor 1 [5] was inactive.
In the case of `Cc1c[nH]c2c(Nc3cccc(Cl)c3)ncc(C(=O)N3CCCC3)c12`, the EC50 is over 30 µM at Cannabinoid receptor 1 [1] and 153 nM on Cannabinoid receptor 2 [2]. The Efficacy on Cannabinoid receptor 2 [3] stood at 68%.
For `Cc1c[nH]c2c(Nc3ccccc3OC(C)C)ncc(C(=O)N3CCOCC3)c12`, the EC50 is over 30 µM at Cannabinoid receptor 1 [1] and 188 nM at Cannabinoid receptor 2 [2]. Also, the Efficacy at Cannabinoid receptor 2 [3] was 73%. Further, at Cannabinoid receptor 1 [5], the outcome was inactive. Moreover, the Ratio EC50 in the data set filed under Homo sapiens is over 100.
As for `CS(=O)(=O)c1ccc(C2=C(c3ccccc3)C(=O)OC2)cc1` [ROFECOXIB], the outcome in the data set on Rattus norvegicus [6] was Active. Moreover, in [7], the Ratio was determined as 74.
In the case of `Cn1ccc2c(Nc3cccc(Cl)c3)ncc(Br)c21`, the Activity in [8], in [9], in data set [10], in [11], in data set [12] and in data set [13] was under 10% throughout. The Activity in [14], in data set [15], in data set [16], in [17], in [18] and in data set [19] was under 10% throughout. The Activity in data set [20] was under 10%; in data set [21] it was under 10%; in data set [22], under 10%; in [27], 25%; in [28], under 10%; in [29] it was under 10%. Further, the Activity in [30], in data set [31], in data set [32], in data set [33], in data set [34] and in [35] was under 10% in each case. Also, the Activity is under 10% in data set [36], “Toxic” in the data set with Rattus norvegicus [37] and “Non-toxic” in the data set with Rattus norvegicus [38]. For the same compound, the EC50 on Cannabinoid receptor 1 [23] is 2510 nM. The Efficacy in data set [24] is 59%. Further, in data set [25], the concentration at 1 h stood at 10.9 µM. Further, the concentration at 3 h in [26] is 14.7 µM.
As for `Cc1c[nH]c2c(Nc3cccc(Cl)c3)ncc(C(=O)N3CCC3)c12`, the concentration giving a half-maximal response (EC50) was over 30 µM on Cannabinoid receptor 1 [1] and 504 nM on Cannabinoid receptor 2 [2]. Besides, the Efficacy at Cannabinoid receptor 2 [3] is 66%.
Take `O=C(NCC1CCOCC1)c1cnc(Nc2ccc(Cl)cc2Cl)nc1C(F)(F)F` [GW842166X]: the EC50 at Cannabinoid receptor 1 [1] is over 30 µM. In [39], this compound showed a solubility of 10 µg/mL (≈ 22.3 µM).
On to `Cc1c[nH]c2c(Nc3cccc(Cl)c3)ncc(C(=O)N3CCCCCC3)c12`, for which the results for the EC50 at Cannabinoid receptor 1 [1] and on Cannabinoid receptor 2 [2] were over 30 µM and 107 nM, respectively. Further, the Efficacy at Cannabinoid receptor 2 [3] was determined as 76%.

The values above are taken from ChEMBL document CHEMBL1156052, “Discovery of 1-[4-(3-chlorophenylamino)-1-methyl-1H-pyrrolo[3,2-c]pyridin-7-yl]-1-morpholin-4-ylmethanone (GSK554418A), a brain penetrant 5-azaindole CB2 agonist for the treatment of chronic pain” (J Med Chem, 2009).
